This is an account of results in US20050244472A1, “Intraocular drug delivery systems containing excipients with reduced toxicity and related methods” (Allergan, Inc., priority 2004, published 2005).

For series [1], the system named is ARPE-19 cells. Briefly: in vitro. The text has this:
Cell viability and cell morphology were examined to evaluate the toxicity of excipients on retinal pigment epithelial cells. The human retina cell line used in these experiments is the ARPE-19 cell line (human adult-derived retinal pigmented epithelial cells). […] They form tight-junctions with transepithelial resistance of monolayers (Dunn K C et al., supra). From a molecular standpoint, it appears that ARPE-19 express a huge pattern of genes similar to those expressed by human RPE from fresh explant which could account for their physiological function (Klimanskaya I. et al., “Derivation and comparative assessment of retinal pigment epithelium from human embryonic stem cells using transcriptomics”, Cloning and Stem Cells, 2004, 6(3):217-45).
ARPE-19 cells are widely used as a retinal model that resemble physiological properties of RPE cells. Similar methods of culturing ARPE-19 cells and cytotoxicity assays can be found in Yeung et al., “Cytotoxicity of triamcinolone on cultured human retinal pigment epithelial cells: comparison with dexamethasone and hydrocortisone”, Jpn J. Ophthalmol, 2004; 48:236-242. Cell viability and cell morphology were examined using conventional colormetric and visual methods. Viability and morphology measurements were obtained at 24 hours, 48 hours, and 72 hours after exposure to an excipient composition.
To assess cell viability, mitochondrial metabolism was quantified through conventional colorometric assays (i.e., the MTT assay). This colorimetric assay utilizes 3-(4,5-dimethylthiazol-2-yl)-2,5-diphenyltetrazolium bromide (MTT) and correlates mitochondrial metabolism and cell viability through measurement of dehydrogenase activity which converts a substrate into crystal. More specifically, the assay measures the activity of living cells through mitochondrial dehydrogenases. When dissolved in culture cell medium, MTT solution appears dark orange. Mitochondrial dehydrogenases of viable cells degrade MTT by cleaving the tetrazolium ring yielding to formation of a purple formazan crystal, which is insoluble in water. Crystals are subsequently dissolved in isopropanol solution. A resulting purple solution is spectrophotometrically measured. Cell viability is relative to amount of formazan and calculated as a percentage of remaining treated compared to non-treated cells.
Results from the MTT assay were expressed as a percentage of cell viability calculated using the following equation: % cell viability=ODtest/ODcontrol×100.
For each experiment, one concentration was performed in triplicate. Each point was spectrophotometrically read twice. Average of readings was calculated, then average from these 3 values was determined.
After 3 experiments were independently completed under the same conditions, a graph was plotted with cell viability expressed as a function of concentration (dose response) and for various incubation period (time course). The IC50 was then estimated based on the graphed data.
More specifically, cell density in 24-multiwell plates was observed on the day of the experiment to check if confluence of the cells was reached. Aliquots of MTT concentrated solutions were removed from a freezer at −20° C. and thawed at room temperature. Cell medium was warmed at 37° C. before use. Appropriated tubes for diluting compounds were prepared. Higher concentrations of each excipient agent was prepared. Serial dilution was then performed in cell medium (DMEM:F12+10% FBS).
Cell culture medium in the 24-well plate was removed using vacuum-pump. Cells were then stimulated with 0.5 ml final volume for each concentration of one given excipient agent. Distribution of the excipient-containing solution was performed using automated pipet-aid in sterile environment (under PSM) or not depending on time of compounds and duration of incubation.
After stimulation, cells were replaced in a CO2 incubator for the required time of exposure.

Series [2] is described as follows: pH of excipient-containing incubating solutions. The format is physicochemical. The protocol:
(§1) For each concentration of tested compound, pH and osmolarity parameters were measured.

Series [3] in a line: Osmolarity of excipient-containing incubating solutions. In kind it is physicochemical. The protocol:
Osmolarity was measured using osmometer type 13/13DR from Roebling (Berlin, GR).
as §1

In series [4] the test system is ARPE-19 cells. In kind it is cell-based. Set-up: key to Cell Morphology score, Mean: 5 = basal (wild type) to 1 = lethal phenotype. The procedure: Cell morphology was visualized using light microscopy. Cell morphology observation using light microscopy permits determination of (i) cell number and density and (ii) whether or not cells in contact with an excipient agent display modified phenotype compared to a non-treated population of cells.
Cell morphology was analyzed in parallel by semi-quantitative scoring ranging from 5 to 1, from basal to lethal phenotype respectively, as shown in FIG. 23.
More specifically, cells were removed from an incubator for examination. Morphological shape of cells was visualized using a light microscope and CCD camera. Every 3 wells of a given concentration was observed through image analysis software. Then, a representative photograph describing the average appearance of cells was saved. The supernatant was either, kept for further predefined experiments to perform, or removed using vacuum-pump.
Resulting semi-quantitative scoring is represented as a function of time course and dose response. Score 5: wild type phenotype of non-treated cells, 100% confluent adherent cells. This phenotype very much vary following post-seeding time. For example, at confluence ARPE-19 cells at 1 day appear well defined with visible outer membrane and dark grey cytoplasm. After 3 days of confluence, limits between cells become less visible and cells adopt a more hexagonal shape and constitute an epithelium-like uniform dense structure. Score 4: density<100%. Cell shape has changed, some spaces are present between cells, few cells possibly detached. Score 3: […]. Spaces are sometimes present among cells, areas appears confluent while in others, cells detached. General cell shape starts showing non negligible alterations. Score 2: Cell density<50%. Cells adopt exclusively stressed appearance, presence of mass dead floating cells. Score 1: Cell density<10%. Presence of almost exclusively dead cells.
Based on quotation, each condition of the applied compound was given a score which allow to a morphology evolution profile to be prepared, ie. cell morphology as a function of compound concentration and time of exposure. […]

Setting [5] is: 0.1% excipient dilution in culture medium.
Where [6] appears, read: 0.5% excipient dilution in culture medium.
Setting [7] is: 1% excipient dilution in culture medium.
The mark [8] stands for this setting: 5% excipient dilution in culture medium.
Setting [9] is: 10% excipient dilution in culture medium.
[10] abbreviates: 20% excipient dilution in culture medium.
The mark [11] stands for this setting: 0.01% excipient dilution in culture medium.
[12] abbreviates: 0.02% excipient dilution in culture medium.
Setting [13] is: 0.04% excipient dilution in culture medium.
[14] abbreviates: 0.06% excipient dilution in culture medium.
Setting [15] is: 0.08% excipient dilution in culture medium.

“And” between values parts separate entries of the source, which are not always exact repeats. Equal values may be shown once. Read-outs that look alike come from different tables or passages of the source.

For the substance hydroxypropylmethyl cellulose [HPMC], in the series with ARPE-19 cells [1], the “diminution of cell viability” value is recorded as 20-40% and the “percentage of cell viability” value was 60-80%.

For “hydroxypropyl gamma-cyclodextrin [Cavasol]”, in the series with ARPE-19 cells [1], the “effect on both cell parameters (viability and morphology)” value was “no measurable effect”. In the series with ARPE-19 cells [1] (0.05 to 10%, recovery after 24 h), the “percentage of living cells” value was over 80%. Moreover, the “reduction of cell survival” value in the series with ARPE-19 cells [1] (0.1% (w/v), 24 hour, 48 hour and 72 hour time points) is at most 10%. Further, the “IC50 (50% cell viability inhibition)” value in the series with ARPE-19 cells [1] (deduced from viability graphs, incubation 24-72 h) is “not possible to determine the IC50”.

On to poloxamer 407nf, for which, in the series on ARPE-19 cells [1], the “increase in cell viability up to” value is listed as “up to 200%”.

With “hydroxypropyl beta-cyclodextrin [Kleptose]”, the pH amounted to 7.6 in series [2] (setting [5]); 7.6 in series [2] (setting [6]); 7.5 in series [2] (setting [7]); 7.5 in series [2] (setting [8]); 7.5 in series [2] (setting [9]); 7.6 in series [2] (setting [10]). The mOsm in series [3] (setting [5]) came to 309 mOsm; in series [3] (setting [6]), 317 mOsm; in series [3] (setting [7]) it was 325 mOsm; in series [3] (setting [8]), 375 mOsm; in series [3] (setting [9]), 459 mOsm; in series [3] (setting [10]) it was 635 mOsm. Moreover, the cell survival entry with ARPE-19 cells [1] (5% (w/v), 24 hour time point) is reported as “about 20%”.

As to sodium carboxymethylcellulose [CMC], the “percentage of cell viability” value in the series on ARPE-19 cells [1] is on record as 80-100%.

With polysorbate 80, the “Cell Morphology score” value is 4 (Score 4: density<100%) in the series with ARPE-19 cells [4] (0.01% Tween80, 24 Hours); 4 (Score 4: density<100%) in the series on ARPE-19 cells [4] (0.01% Tween80, 48 Hours); 4 (Score 4: density<100%) in the series with ARPE-19 cells [4] (0.01% Tween80, 72 Hours); 3 (Score 3: 80%<Cell density<40%) and 4 (Score 4: density<100%) in the series with ARPE-19 cells [4] (0.02% Tween80, 24 Hours); 3 (Score 3: 80%<Cell density<40%) and 4 (Score 4: density<100%) in the series on ARPE-19 cells [4] (0.02% Tween80, 48 Hours); 3 (Score 3: 80%<Cell density<40%) and 4 (Score 4: density<100%) in the series with ARPE-19 cells [4] (0.02% Tween80, 72 Hours). The “Cell Morphology score” value in the series with ARPE-19 cells [4] (0.04% Tween80, 24 Hours) is 3 (Score 3: 80%<Cell density<40%) and 4 (Score 4: density<100%); in the series on ARPE-19 cells [4] (0.04% Tween80, 48 Hours), 3 (Score 3: 80%<Cell density<40%); in the series with ARPE-19 cells [4] (0.04% Tween80, 72 Hours) it was 3 (Score 3: 80%<Cell density<40%); with ARPE-19 cells [4] (0.06% Tween80, 24 Hours) it was 3 (Score 3: 80%<Cell density<40%); in the series on ARPE-19 cells [4] (0.06% Tween80, 48 Hours), 3 (Score 3: 80%<Cell density<40%); with ARPE-19 cells [4] (0.06% Tween80, 72 Hours), 3 (Score 3: 80%<Cell density<40%). The “Cell Morphology score” value in the series on ARPE-19 cells [4] (0.08% Tween80, 24 Hours) was 2 (Score 2: Cell density<50%) and 3 (Score 3: 80%<Cell density<40%); in the series with ARPE-19 cells [4] (0.08% Tween80, 48 Hours), 2 (Score 2: Cell density<50%) and 1 (Score 1: Cell density<10%); in the series with ARPE-19 cells [4] (0.08% Tween80, 72 Hours) it was 1 (Score 1: Cell density<10%); in the series on ARPE-19 cells [4] (0.1% Tween80, 24 Hours) it was 1 (Score 1: Cell density<10%); in the series with ARPE-19 cells [4] (0.1% Tween80, 48 Hours) it was 1 (Score 1: Cell density<10%); in the series with ARPE-19 cells [4] (0.1% Tween80, 72 Hours), 1 (Score 1: Cell density<10%). The “Cell Morphology score, Mean” value with ARPE-19 cells [4] (0.01% Tween80, 24 Hours) is reported as 4.0; with ARPE-19 cells [4] (0.01% Tween80, 48 Hours), 4.0; with ARPE-19 cells [4] (0.01% Tween80, 72 Hours), 4.0; in the series with ARPE-19 cells [4] (0.02% Tween80, 24 Hours), 3.3; in the series on ARPE-19 cells [4] (0.02% Tween80, 48 Hours), 3.3; in the series with ARPE-19 cells [4] (0.02% Tween80, 72 Hours), 3.7. Moreover, the “Cell Morphology score, Mean” value is reported as 3.3 in the series with ARPE-19 cells [4] (0.04% Tween80, 24 Hours); 3.0 in the series with ARPE-19 cells [4] (0.04% Tween80, 48 Hours); 3.0 with ARPE-19 cells [4] (0.04% Tween80, 72 Hours); 3.0 in the series on ARPE-19 cells [4] (0.06% Tween80, 24 Hours); 3.0 in the series with ARPE-19 cells [4] (0.06% Tween80, 48 Hours); 3.0 in the series with ARPE-19 cells [4] (0.06% Tween80, 72 Hours). Moreover, the “Cell Morphology score, Mean” value is listed as 2.3 in the series on ARPE-19 cells [4] (0.08% Tween80, 24 Hours); 1.7 in the series on ARPE-19 cells [4] (0.08% Tween80, 48 Hours); 1.0 in the series with ARPE-19 cells [4] (0.08% Tween80, 72 Hours); 1.0 with ARPE-19 cells [4] (0.1% Tween80, 24 Hours); 1.0 with ARPE-19 cells [4] (0.1% Tween80, 48 Hours); 1.0 in the series with ARPE-19 cells [4] (0.1% Tween80, 72 Hours). In addition, the “cells floating in a typical round dead shape” value in the series with ARPE-19 cells [4] (0.1%) is given as “over 95%”. In addition, the “Morphology limit concentration (%)” value in the series with ARPE-19 cells [4] (ARPE-19 cells, Table 3 summary) stood at 0.06%. Besides, in the series with ARPE-19 cells [4] (morphology), the “critical limit for lethality (injured cell aspect)” value came to 0.06%. For the same substance, the pH in series [2] (setting [11]) is given as 7.5; in series [2] (setting [12]), 7.6; in series [2] (setting [13]) it was 7.5; in series [2] (setting [14]), 7.5; in series [2] (setting [15]), 7.5; in series [2] (setting [5]), 7.6. Moreover, the mOsm in series [3] (setting [11]) was 310 mOsm; in series [3] (setting [12]), 307 mOsm; in series [3] (setting [13]) it was 313 mOsm; in series [3] (setting [14]) it was 346 mOsm; in series [3] (setting [15]), 390 mOsm; in series [3] (setting [5]), 523 mOsm. In the series on ARPE-19 cells [1], the “overall cytotoxicity to ARPE-19 cells (conclusion in words)” value was “barely tolerated”. Moreover, the cell survival result with ARPE-19 cells [1] (0.1% (w/v)) is recorded as “substantially zero”.

For “sulfobutyl ether 4 beta-cyclodextrin [Captisol]”, the pH in series [2] (setting [5]) turned out to be 7.6; in series [2] (setting [6]), 7.6; in series [2] (setting [7]) it was 7.6; in series [2] (setting [8]), 7.6; in series [2] (setting [9]), 7.7; in series [2] (setting [10]) it was 7.7. Also, the mOsm in series [3] (setting [5]) is given as 310 mOsm; in series [3] (setting [6]), 318 mOsm; in series [3] (setting [7]) it was 333 mOsm; in series [3] (setting [8]) it was 408 mOsm; in series [3] (setting [9]), 518 mOsm; in series [3] (setting [10]) it was 710 mOsm. Also, the “Cell Viability, Mean (%)” value with ARPE-19 cells [1] was 40%. In addition, the “overall cytotoxicity to ARPE-19 cells (conclusion in words)” value with ARPE-19 cells [1] is given as “mild cytotoxicity”.
